Experimental data as given in patent US20230139171A1 (SITA Information Networking Computing UK Limited, priority 2019, published 2023).

Tests used:
human TLR7 = biological target: T1, human TLR7 (Homo sapiens, UniProt Q9NYK1); experiment: TLR7 inhibition reporter assay (HEK-Blue cells, SEAP reporter, gardiquimod stimulation); format: cell-based; settings: HEK-Blue cells overexpressing human TLR7, SEAP reporter, gardiquimod 7.5 μM; read-out: TLR7 IC50
T1 construct: host or cells: HEK-Blue cells
T1 sequence (Q9NYK1 27-1049): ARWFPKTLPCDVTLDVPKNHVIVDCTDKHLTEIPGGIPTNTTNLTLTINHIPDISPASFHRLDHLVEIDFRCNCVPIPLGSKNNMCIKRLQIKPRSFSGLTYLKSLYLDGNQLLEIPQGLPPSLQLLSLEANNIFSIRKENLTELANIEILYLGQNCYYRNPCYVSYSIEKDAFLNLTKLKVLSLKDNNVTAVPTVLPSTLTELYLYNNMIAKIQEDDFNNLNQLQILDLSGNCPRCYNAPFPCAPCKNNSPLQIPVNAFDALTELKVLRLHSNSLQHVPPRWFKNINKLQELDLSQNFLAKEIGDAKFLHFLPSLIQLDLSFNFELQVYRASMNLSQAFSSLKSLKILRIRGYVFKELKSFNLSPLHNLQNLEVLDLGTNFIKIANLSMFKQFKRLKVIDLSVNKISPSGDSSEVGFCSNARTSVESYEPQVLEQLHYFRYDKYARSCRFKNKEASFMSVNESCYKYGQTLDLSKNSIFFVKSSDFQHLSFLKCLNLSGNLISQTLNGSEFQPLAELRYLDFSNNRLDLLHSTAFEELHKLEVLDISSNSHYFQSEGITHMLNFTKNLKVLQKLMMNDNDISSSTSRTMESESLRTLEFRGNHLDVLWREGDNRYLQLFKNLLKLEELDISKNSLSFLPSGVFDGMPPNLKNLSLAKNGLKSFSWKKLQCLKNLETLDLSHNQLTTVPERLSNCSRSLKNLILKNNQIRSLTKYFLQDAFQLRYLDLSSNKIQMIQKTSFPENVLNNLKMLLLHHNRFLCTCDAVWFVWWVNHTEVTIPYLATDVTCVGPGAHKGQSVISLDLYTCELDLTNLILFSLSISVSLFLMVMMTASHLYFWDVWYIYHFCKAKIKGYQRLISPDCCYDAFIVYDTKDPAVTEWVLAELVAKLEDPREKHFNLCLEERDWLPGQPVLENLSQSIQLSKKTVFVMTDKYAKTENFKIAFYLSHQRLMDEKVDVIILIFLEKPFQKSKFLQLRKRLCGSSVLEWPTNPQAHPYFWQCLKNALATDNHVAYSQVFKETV
Description: (§1) TLR7/8/9 Inhibition Reporter Assays
(§2) HEK-Blue™-cells (Invivogen) overexpressing human TLR7, TLR8 or TLR9 receptors were used for screening inhibitors of these receptors using an inducible SEAP (secreted embryonic alkaline phosphatase) reporter gene under the control of the IFN-β minimal promoter fused to five NF-κB and AP-1-binding sites. Briefly, cells are seeded into Greiner 384 well plates (15000 cells per well for TLR7, 20,000 for TLR8 and 25,000 for TLR9) and then treated with test compounds in DMSO to yield a final dose response concentration range of 0.05 nM-50 μM. After a 30 minute compound pre-treatment at room temperature, the cells are then stimulated with a TLR7 ligand (gardiquimod at a final concentration of 7.5 μM), TLR8 ligand (R848 at a final concentration of 15.9 μM) or TLR9 ligand (ODN2006 at a final concentration of 5 nM) to activate NF-κB and AP-1 which induce the production of SEAP. After a 22 hour incubation at 37° C., 5% CO2, SEAP levels are determined with the addition of HEK-Blue™ Detection reagent (Invivogen), a cell culture medium that allows for detection of SEAP, according to manufacturer's specifications. The percent inhibition is determined as the % reduction in the HEK-Blue signal present in wells treated with agonist plus DMSO alone compared to wells treated with a known inhibitor.

human TLR8 = biological target: T2, human TLR8 (Homo sapiens, UniProt Q9NR97); experiment: TLR8 inhibition reporter assay (HEK-Blue cells, SEAP reporter, R848 stimulation); format: cell-based; settings: HEK-Blue cells overexpressing human TLR8, SEAP reporter, R848 15.9 μM; read-out: TLR8 IC50
T2 construct: host or cells: HEK-Blue cells
T2 sequence (Q9NR97 27-1041): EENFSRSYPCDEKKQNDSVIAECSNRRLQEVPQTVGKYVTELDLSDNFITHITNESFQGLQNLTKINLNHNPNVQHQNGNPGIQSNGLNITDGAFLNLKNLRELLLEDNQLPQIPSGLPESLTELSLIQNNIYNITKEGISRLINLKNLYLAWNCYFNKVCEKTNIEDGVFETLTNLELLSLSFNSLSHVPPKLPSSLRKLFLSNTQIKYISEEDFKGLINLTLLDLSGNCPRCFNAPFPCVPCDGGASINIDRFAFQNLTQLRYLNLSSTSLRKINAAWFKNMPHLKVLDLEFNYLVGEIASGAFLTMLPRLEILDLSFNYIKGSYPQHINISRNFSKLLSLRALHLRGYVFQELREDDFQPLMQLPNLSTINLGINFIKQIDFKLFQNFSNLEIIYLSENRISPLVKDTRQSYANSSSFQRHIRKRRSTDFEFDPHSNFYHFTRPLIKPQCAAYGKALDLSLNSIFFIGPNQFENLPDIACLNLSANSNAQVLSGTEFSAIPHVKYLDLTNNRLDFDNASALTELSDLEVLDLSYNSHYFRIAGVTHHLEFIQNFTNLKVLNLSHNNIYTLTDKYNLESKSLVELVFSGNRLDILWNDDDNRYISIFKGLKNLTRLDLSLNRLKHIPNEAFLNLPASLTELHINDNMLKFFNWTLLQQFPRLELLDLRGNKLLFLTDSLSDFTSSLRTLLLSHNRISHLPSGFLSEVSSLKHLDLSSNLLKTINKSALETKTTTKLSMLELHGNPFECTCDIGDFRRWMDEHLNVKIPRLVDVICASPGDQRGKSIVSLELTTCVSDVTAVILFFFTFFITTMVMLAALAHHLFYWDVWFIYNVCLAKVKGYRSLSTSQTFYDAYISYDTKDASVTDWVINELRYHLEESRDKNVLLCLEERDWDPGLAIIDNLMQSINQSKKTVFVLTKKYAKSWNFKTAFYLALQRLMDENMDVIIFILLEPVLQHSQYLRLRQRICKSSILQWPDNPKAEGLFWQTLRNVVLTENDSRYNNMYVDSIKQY
Description: as §1, §2

| IC50 (human TLR7) [nM] | IC50 (human TLR8) [nM] | SMILES |
| --- | --- | --- |
| 23.4 | 3.12 | Cc1c(-c2[nH]c3sc(N4CCN(CC(C)(C)O)C[C@@H]4C)nc3c2C(C)C)cn2ncnc2c1C [Example 345, (S)-1-(4-(5-(7,8-dimethyl-[1,2,4]triazolo[1,5-a]pyridin-6-yl)-6-isopropyl-4H-pyrrolo[3,2-d]thiazol-2-yl)-3-methylpiperazin-1-yl)-2-methylpropan-2-ol] |
| 22.9 | 44.5 | Cc1c(-c2[nH]c3sc(N4CCN(C(=O)C5CCS(=O)(=O)CC5)C[C@@H]4C)nc3c2C(C)C)cn2ncnc2c1C [Example 347, (S)-(4-(5-(7,8-dimethyl-[1,2,4]triazolo[1,5-a]pyridin-6-yl)-6-isopropyl-4H-pyrrolo[3,2-d]thiazol-2-yl)-3-methylpiperazin-1-yl)(1,1-dioxidotetrahydro-2H-thiopyran-4-yl)methanone] |
| 19.1 | 22.4 | Cc1c(-c2[nH]c3sc(N4CCN(C5COC5)C[C@@H]4C)nc3c2C(C)C)cn2ncnc2c1C [Example 348, (S)-5-(7,8-dimethyl-[1,2,4]triazolo[1,5-a]pyridin-6-yl)-6-isopropyl-2-(2-methyl-4-(oxetan-3-yl)piperazin-1-yl)-4H-pyrrolo[3,2-d]thiazole] |
| 91 | 1.85 | Cc1c(-c2[nH]c3sc(N4CCN(C5CCC5)C[C@@H]4C)nc3c2C(C)C)cn2ncnc2c1C [Example 349] |
| 1220 | 1330 | Cc1cc(-c2[nH]c3sc(N4CCN(C(=O)CN(C)C)C[C@H]4C)nc3c2C(C)C)cn2ncnc12 [Example 360, (R)-2-(dimethylamino)-1-(4-(6-isopropyl-5-(8-methyl-[1,2,4]triazolo[1,5-a]pyridin-6-yl)-4H-pyrrolo[3,2-d]thiazol-2-yl)-3-methylpiperazin-1-yl)ethan-1-one] |
| 72.1 | 29.4 | Cc1c(-c2[nH]c3sc(C(=O)NCCCN4CCCC4=O)nc3c2C(C)C)cn2ncnc2c1C [Example 371, 5-(7,8-dimethyl-[1,2,4]triazolo[1,5-a]pyridin-6-yl)-6-isopropyl-N-(3-(2-oxopyrrolidin-1-yl)propyl)-4H-pyrrolo[3,2-d]thiazole-2-carboxamide] |
| 56.9 | 18.2 | Cc1c(-c2[nH]c3sc(C(=O)N4CCCC4)nc3c2C(C)C)cn2ncnc2c1C [Example 377, (5-(7,8-dimethyl-[1,2,4]triazolo[1,5-a]pyridin-6-yl)-6-isopropyl-4H-pyrrolo[3,2-d]thiazol-2-yl)(pyrrolidin-1-yl)methanone] |
| 29.4 | 12.2 | Cc1c(-c2[nH]c3sc(C(=O)N4CCNC(=O)C4)nc3c2C(C)C)cn2ncnc2c1C [Example 378, 4-(5-(7,8-dimethyl-[1,2,4]triazolo[1,5-a]pyridin-6-yl)-6-isopropyl-4H-pyrrolo[3,2-d]thiazole-2-carbonyl)piperazin-2-one] |
| 39.5 | 20.1 | Cc1c(-c2[nH]c3sc(C(=O)N4CCN(S(C)(=O)=O)CC4)nc3c2C(C)C)cn2ncnc2c1C [Example 384, (5-(7,8-dimethyl-[1,2,4]triazolo[1,5-a]pyridin-6-yl)-6-isopropyl-4H-pyrrolo[3,2-d]thiazol-2-yl)(4-(methylsulfonyl)piperazin-1-yl) methanone] |
| 58.8 | 31.4 | Cc1c(-c2[nH]c3sc(C(N)=O)nc3c2C(C)C)cn2ncnc2c1C [Example 385, 5-(7,8-dimethyl-[1,2,4]triazolo[1,5-a]pyridin-6-yl)-6-isopropyl-4H-pyrrolo[3,2-d]thiazole-2-carboxamide] |
| 93.6 | 481 | COc1cc(-c2[nH]c3sc(C(=O)NCC(F)(F)F)nc3c2C(C)C)cn2ncnc12 [Example 390, 6-isopropyl-5-(8-methoxy-[1,2,4]triazolo[1,5-a]pyridin-6-yl)-N-(2,2,2-trifluoroethyl)-4H-pyrrolo[3,2-d]thiazole-2-carboxamide] |
| 102 | 118 | Cc1cc(-c2[nH]c3sc(C(N)=O)nc3c2C(C)C)cn2ncnc12 [Example 391, 6-isopropyl-5-(8-methyl-[1,2,4]triazolo[1,5-a]pyridin-6-yl)-4H-pyrrolo[3,2-d]thiazole-2-carboxamide] |
| 241 | 404 | Cc1cc(-c2[nH]c3sc(C(=O)N4CCNC(=O)C4)nc3c2C(C)C)cn2ncnc12 [Example 392, 4-(6-isopropyl-5-(8-methyl-[1,2,4]triazolo[1,5-a]pyridin-6-yl)-4H-pyrrolo[3,2-d]thiazole-2-carbonyl)piperazin-2-one] |
| 77.6 | 140 | Cc1cc(-c2[nH]c3sc(C(=O)N4CCCC4)nc3c2C(C)C)cn2ncnc12 [Example 393, (6-isopropyl-5-(8-methyl-[1,2,4]triazolo[1,5-a]pyridin-6-yl)-4H-pyrrolo[3,2-d]thiazol-2-yl)(pyrrolidin-1-yl) methanone] |
| 154 | 529 | Cc1cc(-c2[nH]c3sc(C(=O)N4CCCOCC4)nc3c2C(C)C)cn2ncnc12 [Example 394, (6-isopropyl-5-(8-methyl-[1,2,4]triazolo[1,5-a]pyridin-6-yl)-4H-pyrrolo[3,2-d]thiazol-2-yl)(1,4-oxazepan-4-yl)methanone] |
| 102 | 53.9 | COC1CN(C(=O)c2nc3c(C(C)C)c(-c4cc(C)c5ncnn5c4)[nH]c3s2)C1 [Example 396, (6-isopropyl-5-(8-methyl-[1,2,4]triazolo[1,5-a]pyridin-6-yl)-4H-pyrrolo[3,2-d]thiazol-2-yl)(3-methoxyazetidin-1-yl)methanone] |
| 221 | 463 | Cc1cc(-c2[nH]c3sc(C(=O)NC4COC4)nc3c2C(C)C)cn2ncnc12 [Example 397, 6-isopropyl-5-(8-methyl-[1,2,4]triazolo[1,5-a]pyridin-6-yl)-N-(oxetan-3-yl)-4H-pyrrolo[3,2-d]thiazole-2-carboxamide] |
